Assay results from ChEMBL document CHEMBL4699448, “Garcinoic Acids and a Benzophenone Derivative from the Seeds of Garcinia kola and Their Antibacterial Activities against Oral Bacterial Pathogenic Organisms” (2020).
≈ marks a conversion by molar mass, not a printed value.

tested on: Porphyromonas gingivalis; test: Bactericidal activity against Porphyromonas gingivalis ATCC 33277 assessed as reduction in bacterial growth incubated for 48 hrs by INT dye based broth dilution method; assay type: functional

Compared with `C/C(=C\CC/C(C)=C/CC[C@]1(C)CCc2cc(O)cc(C)c2O1)CC/C=C(\C)C(=O)O`, `C/C(=C\CC/C(C)=C/CC[C@]1(C)CCc2cc(Oc3c(O)cc(C)c4c3CC[C@@](C)(CC/C=C(\C)CC/C=C(\C)CC/C=C(\C)C(=O)O)O4)cc(C)c2O1)CC/C=C(\C)C(=O)O` is higher in MBC: 250 µM (≈ 107 µg/mL) for the first, greater than 1000 µM for the second.

`O=C1C[C@@H](c2ccc(O)cc2)Oc2c1c(O)cc(O)c2[C@H]1C(=O)c2c(O)cc(O)cc2O[C@@H]1c1ccc(O)cc1` and `O=C1c2c(O)cc(O)cc2O[C@H](c2ccc(O)cc2)[C@H]1c1c(O)cc(O)c2c1O[C@H](c1ccc(O)cc1)[C@@H](O)C2=O` cannot be ordered by MBC: greater than 1000 µM for the first, greater than 1000 µM for the second.

`COc1ccc([C@@H]2CC(=O)c3c(O)cc(O)c([C@H]4C(=O)c5c(O)cc(O)cc5O[C@@H]4c4ccc(O)cc4)c3O2)cc1O` and `COc1ccc([C@H]2Oc3c(c(O)cc(O)c3[C@H]3C(=O)c4c(O)cc(O)cc4O[C@@H]3c3ccc(O)cc3)C(=O)[C@@H]2O)cc1O` cannot be ordered by MBC: greater than 1000 µM for the first, greater than 1000 µM for the second.

`CC(C)=CCC/C(C)=C/Cc1c(O)cc(C(=O)c2ccccc2)cc1O` and `C/C(=C\CC/C(C)=C/CC[C@]1(C)CCc2c(c(C)cc(O)c2-c2c(O)cc(C)c3c2CC[C@@](C)(CC/C=C(\C)CC/C=C(\C)CC/C=C(\C)C(=O)O)O3)O1)CC/C=C(\C)C(=O)O` cannot be ordered by MBC: greater than 1000 µM for the first, greater than 1000 µM for the second.

`C/C(=C\CC/C(C)=C/CC[C@]1(C)CCc2cc(Oc3c(O)c(C)c(C)c4c3CC[C@@](C)(CC/C=C(\C)CC/C=C(\C)CC/C=C(\C)C(=O)O)O4)cc(C)c2O1)CC/C=C(\C)C(=O)O` and `O=C1c2c(O)cc(O)cc2O[C@H](c2ccc(O)cc2)[C@H]1c1c(O)cc(O)c2c1O[C@H](c1ccc(O)c(O)c1)[C@@H](O)C2=O` cannot be ordered by MBC: greater than 1000 µM for the first, greater than 1000 µM for the second.

Compared with `N=C(NCCCCCCNC(=N)NC(=N)Nc1ccc(Cl)cc1)NC(=N)Nc1ccc(Cl)cc1` [CHLORHEXIDINE], `CC1(C)CC[C@]2(C)CC[C@]3(C)[C@H]4CC=C5[C@@H](CC[C@H](O)C5(C)C)[C@]4(C)CC[C@@]3(C)[C@@H]2C1` [GLUTINOL] is higher in MBC: 31.3 µM (≈ 15.8 µg/mL) for the first, greater than 1000 µM for the second.

tested on: Streptococcus sobrinus; test: Antibacterial activity against Streptococcus sobrinus 6715 assessed as reduction in bacterial growth incubated for 24 hrs by INT dye based broth dilution method; assay type: functional

Going from `C/C(=C\CC/C(C)=C/CC[C@]1(C)CCc2cc(O)cc(C)c2O1)CC/C=C(\C)C(=O)O` to `C/C(=C\CC/C(C)=C/CC[C@]1(C)CCc2cc(Oc3c(O)cc(C)c4c3CC[C@@](C)(CC/C=C(\C)CC/C=C(\C)CC/C=C(\C)C(=O)O)O4)cc(C)c2O1)CC/C=C(\C)C(=O)O`, the MIC rises from 31.3 µM (≈ 13.4 µg/mL) to greater than 1000 µM.

`O=C1C[C@@H](c2ccc(O)cc2)Oc2c1c(O)cc(O)c2[C@H]1C(=O)c2c(O)cc(O)cc2O[C@@H]1c1ccc(O)cc1` and `O=C1c2c(O)cc(O)cc2O[C@H](c2ccc(O)cc2)[C@H]1c1c(O)cc(O)c2c1O[C@H](c1ccc(O)cc1)[C@@H](O)C2=O` are the same in MIC: 250 µM (≈ 136 µg/mL) for the first, 250 µM (≈ 140 µg/mL) for the second.

First: COc1ccc([C@@H]2CC(=O)c3c(O)cc(O)c([C@H]4C(=O)c5c(O)cc(O)cc5O[C@@H]4c4ccc(O)cc4)c3O2)cc1O
Second: COc1ccc([C@H]2Oc3c(c(O)cc(O)c3[C@H]3C(=O)c4c(O)cc(O)cc4O[C@@H]3c3ccc(O)cc3)C(=O)[C@@H]2O)cc1O
The MIC of the first is 2-fold higher: 500 µM (≈ 286 µg/mL) for the first, 250 µM (≈ 147 µg/mL) for the second.

First: CC(C)=CCC/C(C)=C/Cc1c(O)cc(C(=O)c2ccccc2)cc1O
Second: C/C(=C\CC/C(C)=C/CC[C@]1(C)CCc2c(c(C)cc(O)c2-c2c(O)cc(C)c3c2CC[C@@](C)(CC/C=C(\C)CC/C=C(\C)CC/C=C(\C)C(=O)O)O3)O1)CC/C=C(\C)C(=O)O
The MIC of the first is lower: 15.6 µM (≈ 5.47 µg/mL) for the first, greater than 1000 µM for the second.

Compared with `C/C(=C\CC/C(C)=C/CC[C@]1(C)CCc2cc(Oc3c(O)c(C)c(C)c4c3CC[C@@](C)(CC/C=C(\C)CC/C=C(\C)CC/C=C(\C)C(=O)O)O4)cc(C)c2O1)CC/C=C(\C)C(=O)O`, `O=C1c2c(O)cc(O)cc2O[C@H](c2ccc(O)cc2)[C@H]1c1c(O)cc(O)c2c1O[C@H](c1ccc(O)c(O)c1)[C@@H](O)C2=O` is lower in MIC: greater than 1000 µM for the first, 250 µM (≈ 144 µg/mL) for the second.

Going from `N=C(NCCCCCCNC(=N)NC(=N)Nc1ccc(Cl)cc1)NC(=N)Nc1ccc(Cl)cc1` [CHLORHEXIDINE] to `CC1(C)CC[C@]2(C)CC[C@]3(C)[C@H]4CC=C5[C@@H](CC[C@H](O)C5(C)C)[C@]4(C)CC[C@@]3(C)[C@@H]2C1` [GLUTINOL], the MIC rises from 2 µM (≈ 1.01 µg/mL) to greater than 1000 µM.

tested on: Porphyromonas gingivalis; test: Antibacterial activity against Porphyromonas gingivalis ATCC 33277 assessed as reduction in bacterial growth incubated for 24 hrs by INT dye based broth dilution method; assay type: functional

Going from `C/C(=C\CC/C(C)=C/CC[C@]1(C)CCc2cc(O)cc(C)c2O1)CC/C=C(\C)C(=O)O` to `C/C(=C\CC/C(C)=C/CC[C@]1(C)CCc2cc(Oc3c(O)cc(C)c4c3CC[C@@](C)(CC/C=C(\C)CC/C=C(\C)CC/C=C(\C)C(=O)O)O4)cc(C)c2O1)CC/C=C(\C)C(=O)O`, the MIC rises from 31.3 µM (≈ 13.4 µg/mL) to greater than 1000 µM.

First: O=C1C[C@@H](c2ccc(O)cc2)Oc2c1c(O)cc(O)c2[C@H]1C(=O)c2c(O)cc(O)cc2O[C@@H]1c1ccc(O)cc1
Second: O=C1c2c(O)cc(O)cc2O[C@H](c2ccc(O)cc2)[C@H]1c1c(O)cc(O)c2c1O[C@H](c1ccc(O)cc1)[C@@H](O)C2=O
The MIC of the first is lower: 250 µM (≈ 136 µg/mL) for the first, greater than 1000 µM for the second.

Compared with `COc1ccc([C@@H]2CC(=O)c3c(O)cc(O)c([C@H]4C(=O)c5c(O)cc(O)cc5O[C@@H]4c4ccc(O)cc4)c3O2)cc1O`, `COc1ccc([C@H]2Oc3c(c(O)cc(O)c3[C@H]3C(=O)c4c(O)cc(O)cc4O[C@@H]3c3ccc(O)cc3)C(=O)[C@@H]2O)cc1O` is higher in MIC: 125 µM (≈ 71.6 µg/mL) for the first, greater than 1000 µM for the second.

Going from `CC(C)=CCC/C(C)=C/Cc1c(O)cc(C(=O)c2ccccc2)cc1O` to `C/C(=C\CC/C(C)=C/CC[C@]1(C)CCc2c(c(C)cc(O)c2-c2c(O)cc(C)c3c2CC[C@@](C)(CC/C=C(\C)CC/C=C(\C)CC/C=C(\C)C(=O)O)O3)O1)CC/C=C(\C)C(=O)O`, the MIC rises from 62.5 µM (≈ 21.9 µg/mL) to greater than 1000 µM.

`C/C(=C\CC/C(C)=C/CC[C@]1(C)CCc2cc(Oc3c(O)c(C)c(C)c4c3CC[C@@](C)(CC/C=C(\C)CC/C=C(\C)CC/C=C(\C)C(=O)O)O4)cc(C)c2O1)CC/C=C(\C)C(=O)O` and `O=C1c2c(O)cc(O)cc2O[C@H](c2ccc(O)cc2)[C@H]1c1c(O)cc(O)c2c1O[C@H](c1ccc(O)c(O)c1)[C@@H](O)C2=O` cannot be ordered by MIC: greater than 1000 µM for the first, greater than 1000 µM for the second.

First: N=C(NCCCCCCNC(=N)NC(=N)Nc1ccc(Cl)cc1)NC(=N)Nc1ccc(Cl)cc1 [CHLORHEXIDINE]
Second: CC1(C)CC[C@]2(C)CC[C@]3(C)[C@H]4CC=C5[C@@H](CC[C@H](O)C5(C)C)[C@]4(C)CC[C@@]3(C)[C@@H]2C1 [GLUTINOL]
The MIC of the first is lower: 15.6 µM (≈ 7.89 µg/mL) for the first, greater than 1000 µM for the second.

tested on: Streptococcus sobrinus; test: Bactericidal activity against Streptococcus sobrinus 6715 assessed as reduction in bacterial growth incubated for 48 hrs by INT dye based broth dilution method; assay type: functional

First: C/C(=C\CC/C(C)=C/CC[C@]1(C)CCc2cc(O)cc(C)c2O1)CC/C=C(\C)C(=O)O
Second: C/C(=C\CC/C(C)=C/CC[C@]1(C)CCc2cc(Oc3c(O)cc(C)c4c3CC[C@@](C)(CC/C=C(\C)CC/C=C(\C)CC/C=C(\C)C(=O)O)O4)cc(C)c2O1)CC/C=C(\C)C(=O)O
The MBC of the first is lower: 62.5 µM (≈ 26.7 µg/mL) for the first, greater than 1000 µM for the second.

Compared with `O=C1C[C@@H](c2ccc(O)cc2)Oc2c1c(O)cc(O)c2[C@H]1C(=O)c2c(O)cc(O)cc2O[C@@H]1c1ccc(O)cc1`, `O=C1c2c(O)cc(O)cc2O[C@H](c2ccc(O)cc2)[C@H]1c1c(O)cc(O)c2c1O[C@H](c1ccc(O)cc1)[C@@H](O)C2=O` is 2-fold higher in MBC: 500 µM (≈ 271 µg/mL) for the first, 1000 µM (≈ 558 µg/mL) for the second.

`COc1ccc([C@@H]2CC(=O)c3c(O)cc(O)c([C@H]4C(=O)c5c(O)cc(O)cc5O[C@@H]4c4ccc(O)cc4)c3O2)cc1O` and `COc1ccc([C@H]2Oc3c(c(O)cc(O)c3[C@H]3C(=O)c4c(O)cc(O)cc4O[C@@H]3c3ccc(O)cc3)C(=O)[C@@H]2O)cc1O` cannot be ordered by MBC: greater than 1000 µM for the first, greater than 1000 µM for the second.

First: CC(C)=CCC/C(C)=C/Cc1c(O)cc(C(=O)c2ccccc2)cc1O
Second: C/C(=C\CC/C(C)=C/CC[C@]1(C)CCc2c(c(C)cc(O)c2-c2c(O)cc(C)c3c2CC[C@@](C)(CC/C=C(\C)CC/C=C(\C)CC/C=C(\C)C(=O)O)O3)O1)CC/C=C(\C)C(=O)O
The MBC of the first is lower: 31.3 µM (≈ 11 µg/mL) for the first, greater than 1000 µM for the second.

First: C/C(=C\CC/C(C)=C/CC[C@]1(C)CCc2cc(Oc3c(O)c(C)c(C)c4c3CC[C@@](C)(CC/C=C(\C)CC/C=C(\C)CC/C=C(\C)C(=O)O)O4)cc(C)c2O1)CC/C=C(\C)C(=O)O
Second: O=C1c2c(O)cc(O)cc2O[C@H](c2ccc(O)cc2)[C@H]1c1c(O)cc(O)c2c1O[C@H](c1ccc(O)c(O)c1)[C@@H](O)C2=O
The MBC of the first is higher: greater than 1000 µM for the first, 1000 µM (≈ 574 µg/mL) for the second.

Compared with `N=C(NCCCCCCNC(=N)NC(=N)Nc1ccc(Cl)cc1)NC(=N)Nc1ccc(Cl)cc1` [CHLORHEXIDINE], `CC1(C)CC[C@]2(C)CC[C@]3(C)[C@H]4CC=C5[C@@H](CC[C@H](O)C5(C)C)[C@]4(C)CC[C@@]3(C)[C@@H]2C1` [GLUTINOL] is higher in MBC: 2 µM (≈ 1.01 µg/mL) for the first, greater than 1000 µM for the second.
